One data set addresses T1, rhCRTh2 (Homo sapiens, UniProt Q9Y5Y4).
T1 construct: expressed in transfected cells; host or cells: HEK cells (membrane preparation)
T1 sequence (Q9Y5Y4 1-395): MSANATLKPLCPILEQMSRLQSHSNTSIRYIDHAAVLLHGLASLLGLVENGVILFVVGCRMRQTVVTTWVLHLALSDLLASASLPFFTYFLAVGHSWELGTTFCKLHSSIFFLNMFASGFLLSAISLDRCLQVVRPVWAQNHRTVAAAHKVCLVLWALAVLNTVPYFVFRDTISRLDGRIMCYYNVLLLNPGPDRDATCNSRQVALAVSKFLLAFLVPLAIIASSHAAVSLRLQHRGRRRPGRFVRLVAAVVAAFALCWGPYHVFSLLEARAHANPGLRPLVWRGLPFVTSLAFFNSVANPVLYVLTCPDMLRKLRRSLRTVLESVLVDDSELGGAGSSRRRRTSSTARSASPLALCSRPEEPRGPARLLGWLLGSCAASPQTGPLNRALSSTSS
Nature of the data set: Ligand binding assay ([3H]PGD2, SPA, HEK cell membranes). The note with it: [3H]PGD2 binding to HEK cell membranes containing CRTh2, RT 2 hours.

The test system of another data set is human hepatocytes. Nature of the data set: Determination of metabolic intrinsic clearance (CLint) using human hepatocytes. It counts as in vitro ADME. The conditions noted are these: 1 μM substrate, 37° C., n=3. The method, then: Compound stocks were prepared in dimethyl sulfoxide at 100-fold incubation concentration (100 μM). 10 μl of this 100 μM stock was added to a vial containing 490 μl of hepatocyte suspension buffer (without serum). A vial containing either human hepatocytes at a concentration of 2 million viable cells/ml was pre-incubated for 5 min in a shaking (80 oscillations/min) water bath at 37° C. along with the vial containing the drug/buffer mix.
Reactions were initiated by adding 500 μl of hepatocyte suspension to the 500 μl of drug/buffer mix (giving a final substrate concentration of 1 μM at 1% v/v dimethyl sulfoxide). Aliquots (40 μl) were removed at 5, 15, 30, 45, 60, 75 90 & 120 min and reactions were quenched in 80 μl of ice-cold methanol. Samples were subsequently frozen for 1 h at −20° C. and then centrifuged at 2000 g for 20 min at 4° C. The supernatants were removed and analysed by MS/MS and Clint was estimated from the slope of a natural Log of MS/MS response versus time plot. Using physiological scaling factors to account for hepatocellularity and liver weight in the human (Ito and Houston, 2004) hepatic blood clearance was predicted (Clh) using the method outlined by Riley et al., 2005. Typical acid drugs showing an intrinsic clearance value in this assay of <2 μl/min/e^6 cells show robust half lives in man consistent with a once-daily dose intervals. […]

Data set [1] is described as follows: Water uptake by GVS (gravimetric vapour sorption). It is filed as physicochemical. The note with it: between RH of 0% -80%, as measured by GVS. Here is the method: • XRPD data were collected using either a PANalytical CubiX PRO machine or a Philips X-Pert MPD machine. • XRPD—PANalytical CubiX PRO • Data was collected with a PANalytical CubiX PRO machine in θ-θ configuration over the scan range 2° to 40° 2θ with 100-second exposure per 0.02° increment. The X-rays were generated by a copper long-fine focus tube operated at 45 kV and 40 mA. The wavelength of the copper X-rays was 1.5418 Å. The data was collected on zero background holders on which ˜2 mg of the compound was placed. The holder was made from a single crystal of silicon, which had been cut along a non-diffracting plane and then polished on an optically flat finish. […] The X-rays incident upon this surface were negated by Bragg extinction. • DSC thermograms were measured using a TA Q1000 Differential Scanning Calorimeter, with aluminium pans and pierced lids. […] The procedure was carried out under a flow of nitrogen gas (50 ml/min) and the temperature studied from 25 to 300° C. at a constant rate of temperature increase of 10° C. per minute. • GVS profiles were measured using a Dynamic Vapour Sorption DVS-1 instrument. The solid sample ca. 1-5 mg was placed into a glass vessel and the weight of the sample was recorded during a dual cycle step method (40 to 90 to 0 to 90 to 0% relative humidity (RH), in steps of 10% RH).

Molecules are shown by their SMILES. Structures can show the parent of a compound that is named as a salt.

Description for rhCRTh2: HEK cells expressing rhCRTh2/Gα16 were routinely maintained in DMEM containing 10% Foetal Bovine Serum (HyClone), 1 mg/ml geneticin, 2 mM L-glutamine and 1% non-essential amino acids. For the preparation of membranes, the adherent transfected HEKcells were grown to confluence in two layer tissue culture factories (Fisher, catalogue number TKT-170-[MUT]). Maximal levels of receptor expression were induced by addition of 500 mM sodium butyrate for the last 18 hours of culture. The adherent cells were washed once with phosphate buffered saline (PBS, 50 ml per cell factory) and detached by the addition of 50 ml per cell factory of ice-cold membrane homogenisation buffer [20 mM HEPES (pH 7.4), 01. mM dithiothreitol, 1 mM EDTA, 0.1 mM phenyl methyl sulphonyl fluoride and 100 μg/ml bacitracin]. […] The final pellet was re-suspended in 4 ml of membrane homogenisation buffer per cell factory used and the protein content determined. […] (The optimum coating concentrations were determined for each batch of membranes) The beads were pelleted by centrifugation (800×g for 7 minutes at 4° C.), washed once with assay buffer (50 mM HEPES pH 7.4 containing 5 mM magnesium chloride) and finally re-suspended in assay buffer at a bead concentration of 10 mg/ml. […] The assay plate was incubated at RT for 2 hours and counted on a Wallac Microbeta liquid scintillation counter (1 minute per well).

One may read the pIC50 as the negative decadic logarithm of the IC50, by convention in mol/L. At rhCRTh2, `C[C@H](Oc1ccc(F)cc1-c1ccc(C(=O)N2CCCC2(C)C)c(Cl)c1)C(=O)O` [Example 1, (2S)-2-({3′-chloro-4′-[(2,2-dimethylpyrrolidin-1-yl)carbonyl]-5-fluorobiphenyl-2-yl}oxy)propanoic acid] had a pIC50 of 8.4. Moreover, in the data set on human hepatocytes, the Clint is recorded as < 1 μl/min/e^6.
In the case of `C[C@H](Oc1ccc(F)cc1-c1ccc(C(=O)N2CCCC2(C)C)c(Cl)c1)C(=O)O` [Example 2, (2S)-2-({3′-chloro-4′-[(2,2-dimethylpyrrolidin-1-yl)carbonyl]-5-fluorobiphenyl-2-yl}oxy)propanoic acid 2-methylpropan-2-amine salt], in data set [1] (listed as example 2 polymorph A), the water uptake is listed as 0.6%.
`C[C@H](Oc1ccc(F)cc1-c1ccc(C(=O)N2CCCC2(C)C)c(Cl)c1)C(=O)O` [Example 4, (2S)-2-({3′-chloro-4′-[(2,2-dimethylpyrrolidin-1-yl)carbonyl]-5-fluorobiphenyl-2-yl}oxy)propanoic acid crystaline free acid] registered a water uptake in data set [1] (listed as example 4 polymorph A) of 0.7%.

(Values after US8507544B2, “Bi-aryl amide compounds as CRTh2 receptor modulators” (Astrazeneca AB, priority 2007, dated 2013).)
